Experimental data from patent publication US11000033B2, “Ketone or oxime compound, and herbicide” (NISSAN CHEMICAL CORPORATION, priority 2014, dated 2021).

Experiments:
Assay type in all cases: in vivo
Setaria viridis = experiment: Test Example 5: herbicidal effect by foliage application, plastic box (symbol G); settings: 320 g/ha, 3 weeks after application
Outline: (§1)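 Effect is rated 3 weeks after a foliar spray of water-diluted emulsion concentrate at a predetermined herbicide amount. Plants had grown 14 days in a 25° C. to 30° C. greenhouse from seed in sterilized diluvial soil.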

Avena fatua = experiment: Test Example 5: herbicidal effect by foliage application, plastic box (symbol I); settings: 320 g/ha, 3 weeks after application
Outline: as §1

wheat = experiment: Test Example 5: effect on crop by foliage application, plastic box (symbol e); settings: 320 g/ha, 3 weeks after application
Outline: (§2)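 Crop seed is sown alongside grass and broadleaf weed species in spots in sterilized diluvial soil, then covered to a depth of about 1.5 cm. Plants grow in a greenhouse kept at 25° C. to 30° C.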

Lolium multiflorum Lam. [1] = experiment: Test Example 4: herbicidal effect by soil treatment (symbol K); settings: for K: Lolium multiflorum Lam., herbicidal effect grade: 320 g/ha
Outline: (§3)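 Seeds were sown in sterilized diluvial soil, covered with about 1.5 cm of soil, and the soil surface was sprayed with a water-diluted emulsion of the compound at a predetermined rate. Plants grew in a greenhouse at 25° C. to 30° C.; effects were scored visually 3 weeks after application.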

[2] = tested on: Echinochloa crus-galli var. crus-galli; experiment: Test Example 4: herbicidal effect by soil treatment (symbol H); settings: for H: Echinochloa crus-galli var. crus-galli, herbicidal effect grade: 320 g/ha
Outline: as §3

Scirpus juncoides = experiment: Test Example 2: herbicidal activity, application during weed generation in submerged conditions (symbol B); settings: Table 23; application herbicide amount 320 g/ha; grade 0-5 by criteria of Test Example 1
Outline: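 Weeds emerging under flooded conditions were treated with compound formulated as an emulsion and diluted with water to the intended herbicide amount, poured onto the surface of 4 cm standing water. Seeds had been co-sown in alluvial soil; plants grew at 25° C. to 30° C. and were assessed after 3 weeks.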

rice = experiment: Test Example 4: effect on crop by soil treatment (symbol b); settings: for b: directly sowed rice plant, effect grade on crop: 320 g/ha
Outline: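 Seeds were sown in spots on sterilized diluvial soil in a plastic box and covered with about 1.5 cm of soil. Plants were then grown in a greenhouse at 25° C. to 30° C.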

Alopecurus myosuroides = experiment: Test Example 5: herbicidal effect by foliage application, plastic box (symbol J); settings: 320 g/ha, 3 weeks after application
Outline: as §1

Veronica persica = experiment: Test Example 5: herbicidal effect by foliage application, plastic box (symbol R); settings: 320 g/ha, 3 weeks after application
Outline: as §1

[3] = tested on: Echinochloa crus-galli var. crus-galli; experiment: Test Example 3: herbicidal effect by foliage application, Wagner pot (symbol H); settings: application herbicide amount 320 g/ha
Outline: (§4)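 Alluvial soil was flooded to a depth of 0.1–0.5 cm, seeded with the weeds and rice, and kept in a greenhouse at 25–30 °C. After 14 days of growth, the foliage received a small-sprayer application of emulsion diluted to the intended rate; injury was rated at 3 weeks.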

Galium spurium = experiment: Test Example 4: herbicidal effect by soil treatment (symbol Q); settings: for Q: Galium spurium, herbicidal effect grade: 320 g/ha
Outline: as §3

Lolium multiflorum Lam. [4] = experiment: Test Example 5: herbicidal effect by foliage application, plastic box (symbol K); settings: 320 g/ha, 3 weeks after application
Outline: as §1

rice plant = experiment: Test Example 5: effect on crop by foliage application, plastic box (symbol b); settings: 320 g/ha, 3 weeks after application
Outline: as §2

Cyperus difformis = experiment: Test Example 3: herbicidal effect by foliage application, Wagner pot (symbol E); settings: application herbicide amount 320 g/ha
Outline: as §4

Apera spica-venti = experiment: Test Example 4: herbicidal effect by soil treatment (symbol L); settings: for L: Apera spica-venti, herbicidal effect grade: 320 g/ha
Outline: as §3

corn = experiment: Test Example 4: effect on crop by soil treatment (symbol c); settings: for c: corn, effect grade on crop: 320 g/ha
Outline: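 Grown at 25° C. to 30° C. in a greenhouse, the crops came from seed sown spot-wise in sterilized diluvial soil under roughly 1.5 cm of covering soil.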

Stellaria media = experiment: Test Example 5: herbicidal effect by foliage application, plastic box (symbol P); settings: 320 g/ha, 3 weeks after application
Outline: as §1

[5] = application herbicide amount 320 g/ha

| Structure (SMILES) | Herbicidal effect grade, B: Scirpus juncoides (Scirpus juncoides) | herbicidal effect on H (Echinochloa crus-galli var. crus-galli), grade 0-5 [3] | G: Setaria viridis, herbicidal effect (criteria 0-5) (Setaria viridis) | I: Avena fatua, herbicidal effect (criteria 0-5) (Avena fatua) | e: wheat, effect on crop (criteria 0-5) (wheat) | K: Lolium multiflorum Lam., herbicidal effect grade (Lolium multiflorum Lam. [1]) | H: Echinochloa crus-galli var. crus-galli, herbicidal effect grade [2] | P: Stellaria media, herbicidal effect (criteria 0-5) (Stellaria media) | b: directly sowed rice plant, effect grade on crop (rice) | J: Alopecurus myosuroides, herbicidal effect (criteria 0-5) (Alopecurus myosuroides) | R: Veronica persica, herbicidal effect (criteria 0-5) (Veronica persica) | Q: Galium spurium, herbicidal effect grade (Galium spurium) | K: Lolium multiflorum Lam., herbicidal effect (criteria 0-5) (Lolium multiflorum Lam. [4]) | b: directly sowed rice plant, effect on crop (criteria 0-5) (rice plant) | L: Apera spica-venti, herbicidal effect grade (Apera spica-venti) | c: corn, effect grade on crop (corn) | further results |
| --- | --- | --- | --- | --- | --- | --- | --- | --- | --- | --- | --- | --- | --- | --- | --- | --- | --- |
| CON=C(C)CC1CC(OC(=O)OC)=C(c2c(C)cc(C)cc2C)C1=O (stereo not shown) [1-014] | 3 (Herbicidal ratio of 40% or higher and lower than 70%) | 5 (Herbicidal ratio of 90% or more (almost completely withered)) | – | – | – | – | – | – | – | – | – | – | – | – | – | – | G: Setaria viridis, herbicidal effect grade (Setaria viridis): 5 (Herbicidal ratio of 90% or more (almost completely withered)); I: Avena fatua, herbicidal effect grade (Avena fatua): 5 (Herbicidal ratio of 90% or more (almost completely withered)); e: wheat, effect on crop grade (wheat): 5 (Herbicidal ratio of 90% or more (almost completely withered)); K (Lolium multiflorum Lam.) herbicidal effect grade (Lolium multiflorum Lam. [1]; [5]): 5 (Herbicidal ratio of 90% or more (almost completely withered)); H (Echinochloa crus-galli var. crus-galli) herbicidal effect grade [2, 5]: 5 (Herbicidal ratio of 90% or more (almost completely withered)); b (directly sowed rice plant) effect on crop grade (rice; [5]): 4 (Herbicidal ratio of 70% or higher and lower than 90%); J: Alopecurus myosuroides, herbicidal effect grade (Alopecurus myosuroides): 5 (Herbicidal ratio of 90% or more (almost completely withered)); R: Veronica persica, herbicidal effect grade (Veronica persica): 3 (Herbicidal ratio of 40% or higher and lower than 70%); Q (Galium spurium) herbicidal effect grade (Galium spurium; [5]): 5 (Herbicidal ratio of 90% or more (almost completely withered)); K: Lolium multiflorum Lam., herbicidal effect grade (Lolium multiflorum Lam. [4]): 5 (Herbicidal ratio of 90% or more (almost completely withered)); b: directly sowed rice plant, effect on crop grade (rice plant): 5 (Herbicidal ratio of 90% or more (almost completely withered)); herbicidal effect on E, grade 0-5 (Cyperus difformis): 5 (Herbicidal ratio of 90% or more (almost completely withered)); L (Apera spica-venti) herbicidal effect grade (Apera spica-venti; [5]): 5 (Herbicidal ratio of 90% or more (almost completely withered)); c (corn) effect on crop grade (corn; [5]): 4 (Herbicidal ratio of 70% or higher and lower than 90%) |
| C=CCOC(=O)OC1=C(c2c(C)cc(C)cc2C)C(=O)C(CC(C)=NOC)C1 (stereo not shown) [1-146] | 5 (Herbicidal ratio of 90% or more (almost completely withered)) | 5 (Herbicidal ratio of 90% or more (almost completely withered)) | 5 (Herbicidal ratio of 90% or more (almost completely withered)) | 5 (Herbicidal ratio of 90% or more (almost completely withered)) | 5 (Herbicidal ratio of 90% or more (almost completely withered)) | 5 (Herbicidal ratio of 90% or more (almost completely withered)) | 5 (Herbicidal ratio of 90% or more (almost completely withered)) | 3 (Herbicidal ratio of 40% or higher and lower than 70%) | 5 (Herbicidal ratio of 90% or more (almost completely withered)) | 5 (Herbicidal ratio of 90% or more (almost completely withered)) | 3 (Herbicidal ratio of 40% or higher and lower than 70%) | 0 (Herbicidal ratio of 5% or lower (almost no effect)) | 5 (Herbicidal ratio of 90% or more (almost completely withered)) | 5 (Herbicidal ratio of 90% or more (almost completely withered)) | 5 (Herbicidal ratio of 90% or more (almost completely withered)) | 1 (Herbicidal ratio of 5% or higher and lower than 20%) | – |
| CON=C(C)CC1CC(OC(=O)OCc2ccccc2)=C(c2c(C)cc(C)cc2C)C1=O (stereo not shown) [1-145] | 5 (Herbicidal ratio of 90% or more (almost completely withered)) | 5 (Herbicidal ratio of 90% or more (almost completely withered)) | 5 (Herbicidal ratio of 90% or more (almost completely withered)) | 5 (Herbicidal ratio of 90% or more (almost completely withered)) | 5 (Herbicidal ratio of 90% or more (almost completely withered)) | 5 (Herbicidal ratio of 90% or more (almost completely withered)) | 5 (Herbicidal ratio of 90% or more (almost completely withered)) | 2 (Herbicidal ratio of 20% or higher and lower than 40%) | 5 (Herbicidal ratio of 90% or more (almost completely withered)) | 5 (Herbicidal ratio of 90% or more (almost completely withered)) | 3 (Herbicidal ratio of 40% or higher and lower than 70%) | 0 (Herbicidal ratio of 5% or lower (almost no effect)) | 5 (Herbicidal ratio of 90% or more (almost completely withered)) | 5 (Herbicidal ratio of 90% or more (almost completely withered)) | 5 (Herbicidal ratio of 90% or more (almost completely withered)) | 5 (Herbicidal ratio of 90% or more (almost completely withered)) | – |
| CON=C(C)CC1CC(OS(=O)(=O)C2CC2)=C(c2c(C)cc(C)cc2C)C1=O (stereo not shown) [1-143] | 4 (Herbicidal ratio of 70% or higher and lower than 90%) | 4 (Herbicidal ratio of 70% or higher and lower than 90%) | 5 (Herbicidal ratio of 90% or more (almost completely withered)) | 5 (Herbicidal ratio of 90% or more (almost completely withered)) | 3 (Herbicidal ratio of 40% or higher and lower than 70%) | 4 (Herbicidal ratio of 70% or higher and lower than 90%) | 0 (Herbicidal ratio of 5% or lower (almost no effect)) | 0 (Herbicidal ratio of 5% or lower (almost no effect)) | 0 (Herbicidal ratio of 5% or lower (almost no effect)) | 5 (Herbicidal ratio of 90% or more (almost completely withered)) | 0 (Herbicidal ratio of 5% or lower (almost no effect)) | 0 (Herbicidal ratio of 5% or lower (almost no effect)) | 5 (Herbicidal ratio of 90% or more (almost completely withered)) | 2 (Herbicidal ratio of 20% or higher and lower than 40%) | 5 (Herbicidal ratio of 90% or more (almost completely withered)) | 0 (Herbicidal ratio of 5% or lower (almost no effect)) | – |
